Measurements: ChEMBL document CHEMBL4346738, “Biological evaluation of molecules of the azaBINOL class as antiviral agents: Inhibition of HIV-1 RNase H activity by 7-isopropoxy-8-(naphth-1-yl)quinoline” (Bioorg Med Chem, 2019)
One block for each compound: values may come before it. Activity calls are given as the source filed them. No cut-off for these calls is given here.

Columns and labels:
Reverse transcriptase = Reverse transcriptase (Moloney murine leukemia virus, UniProt Q83371); assay: Inhibition of Murine leukemia virus reverse transcriptase RNase H using 18-nucleotide 3'-fluorescein-labeled RNA/5'-dabcyl-labeled DNA hybrid as substrate measured after 1 hr by FRET based assay
[1] = system: Human immunodeficiency virus 1; assay: Antiviral activity against HIV1 HXB2 pseudovirus infected in human TZM-bl cells assessed as inhibition of viral infection up to 200 uM incubated for 20 mins prior to infection and measured after 48 hrs post infection by bright Glo-luciferase reporter gene assay; assay type: functional, organism-based; conditions: M:B_HXB2R
[2] = system: Human immunodeficiency virus 1; assay: Antiviral activity against HIV1 YU2 pseudovirus infected in human TZM-bl cells assessed as inhibition of viral infection up to 200 uM incubated for 20 mins prior to infection and measured after 48 hrs post infection by bright Glo-luciferase reporter gene assay; assay type: functional, organism-based; conditions: isolate YU2
[3] = Inhibition of Escherichia coli reverse transcriptase RNase H using 18-nucleotide 3'-fluorescein-labeled RNA/5'-dabcyl-labeled DNA hybrid as substrate measured after 1 hr by FRET based assay
[4] = system: Human immunodeficiency virus 1; assay: Antiviral activity against HIV1 HXB2 pseudovirus infected in human TZM-bl cells assessed as inhibition of viral infection incubated for 20 mins prior to infection and measured after 48 hrs by bright Glo-luciferase reporter gene assay; assay type: functional, organism-based, M:B_HXB2R
[5] = system: Human immunodeficiency virus 1; assay: Antiviral activity against HIV1 LAI infected in human LC5 cells expressing DsRed1 reporter gene assessed as inhibition of viral infection up to 200 uM measured after 48 hrs post infection by reporter gene based […] assay; assay type: functional, organism-based
[6] = biological target: T1, Human immunodeficiency virus type 1 reverse transcriptase (Human immunodeficiency virus 1, UniProt Q72547); assay: Inhibition of HIV1 Reverse transcriptase polymerase assessed as decrease in digoxigenin and biotin-dUTP incorporation into DNA using poly(A)/oligo(dT)15 as template/primer by ELISA
[7] = biological target: Human immunodeficiency virus type 1 integrase (Human immunodeficiency virus 1, UniProt Q7ZJM1); assay: Inhibition of recombinant HIV1 integrase strand transfer activity using biotin-labeled double-stranded HIV1 LTR U5 donor DNA substrate pretreated for 5 mins followed by substrate addition and measured after 30 mins by ELISA
[8] = biological target: T1, Human immunodeficiency virus type 1 reverse transcriptase; assay: Inhibition of HIV1 reverse transcriptase RNase H using 18-nucleotide 3'-fluorescein-labeled RNA/5'-dabcyl-labeled DNA hybrid as substrate measured after 1 hr by FRET based assay
[9] = system: Human immunodeficiency virus 1; assay: Antiviral activity against HIV1 89.6 pseudovirus infected in human TZM-bl cells assessed as inhibition of viral infection incubated for 20 mins prior to infection and measured after 48 hrs post infection by bright Glo-luciferase reporter gene assay; assay type: functional, organism-based, M:B_89.6
[10] = system: Human immunodeficiency virus 1; assay: Antiviral activity against HIV1 YU2 pseudovirus infected in human TZM-bl cells assessed as inhibition of viral infection incubated for 20 mins prior to infection and measured after 48 hrs post infection by bright Glo-luciferase reporter gene assay; assay type: functional, organism-based, isolate YU2
[11] = Cytotoxicity against human LC5 cells assessed as reduction in cell viability incubated for 48 hrs by resazurin dye-based assay; conditions: for CC50 at 48 h: LC5 cells
[12] = system: Human immunodeficiency virus 1; assay: Antiviral activity against HIV1 89.6 pseudovirus infected in human TZM-bl cells assessed as inhibition of viral infection up to 200 uM incubated for 20 mins prior to infection and measured after 48 hrs post infection by bright Glo-luciferase reporter gene assay; assay type: functional, organism-based; conditions: M:B_89.6
TZM = assay: (§1) Cytotoxicity against human TZM-bl cells assessed as reduction in cell viability after 48 hrs by MTT assay; assay type: cell-based; conditions: tzm, 48 h
[13] = system: Human immunodeficiency virus 1; assay: Antiviral activity against HIV1 LAI infected in human LC5 cells expressing DsRed1 reporter gene assessed as inhibition of viral infection measured after 48 hrs post infection by reporter gene based […] assay; assay type: functional, organism-based
[14] = Inhibition of Avian myeloblastosis virus reverse transcriptase RNase H using 18-nucleotide 3'-fluorescein-labeled RNA/5'-dabcyl-labeled DNA hybrid as substrate measured after 1 hr by FRET based assay
[15] = Selectivity index, ratio of CC50 for human LC5 cells to IC50 for antiviral activity against HIV1 LAI infected in human LC5 cells; assay type: toxicity, cell-based; conditions: read-out: Ratio CC50/IC50
[16] = biological target: T1, Human immunodeficiency virus type 1 reverse transcriptase; assay: Binding affinity to recombinant wild-type full length HIV1 reverse transcriptase p66/p51 expressed in Escherichia coli by biolayer interferometry
[17] = system: Human immunodeficiency virus 1; assay: Antiviral activity against HIV1 V13-03413B infected in human LC5 cells expressing DsRed1 reporter gene assessed as inhibition of viral infection measured after 48 hrs post infection by reporter gene based […] assay; assay type: functional, organism-based; conditions: Human immunodeficiency virus 1, V13-03413B
[18] = Selectivity index, ratio of CC50 for human TZM-bl cells to IC50 for antiviral activity against HIV1 89.6 pseudovirus infected in human TZM-bl cells; assay type: toxicity, cell-based; conditions: read-out: Ratio CC50/IC50
[19] = system: Human immunodeficiency virus 1; assay: Selectivity ratio of IC50 for HIV1 V13-03413B infected in human LC5 cells to IC50 for HIV1 LAI infected in human LC5 cells; assay type: functional
[20] = Compound aggregation in D2O/1% DMSO-d6 solvent assessed as peak shape at 12 to 200 uM by 1H NMR dilution analysis; assay type: physicochemical
[21] = Metal chelating activity assessed as compound-Mg2+ complex formation in presence of varying concentrations of Mg2+ at 100 uM by UV-vis spectrometry; assay type: ADME
[22] = Compound aggregation in D2O/1% DMSO-d6 solvent assessed as number of resonance at 12 to 200 uM by 1H NMR dilution analysis; assay type: physicochemical
[23] = Compound aggregation in D2O/1% DMSO-d6 solvent assessed as change in chemical shift at 12 to 200 uM by 1H NMR dilution analysis; assay type: physicochemical
[24] = as §1; assay type: cell-based; conditions: TZM-bl cells
[25] = system: Human immunodeficiency virus 1; assay: Antiviral activity against HIV1 HXB2 pseudovirus infected in human TZM-bl cells assessed as inhibition of viral infection at 20 nM measured after 48 hrs post infection by bright Glo-luciferase reporter gene assay relative to control; assay type: functional; conditions: Human immunodeficiency virus 1, M:B_HXB2R
[26] = system: Human immunodeficiency virus 1; assay: Antiviral activity against HIV1 YU2 pseudovirus infected in human TZM-bl cells assessed as inhibition of viral infection at 20 nM measured after 48 hrs post infection by bright Glo-luciferase reporter gene assay relative to control; assay type: functional; conditions: Human immunodeficiency virus 1, isolate YU2, TZM-bl
[27] = system: Human immunodeficiency virus 1; assay: Antiviral activity against HIV1 89.6 pseudovirus infected in human TZM-bl cells assessed as inhibition of viral infection at 20 nM measured after 48 hrs post infection by bright Glo-luciferase reporter gene assay relative to control; assay type: functional; conditions: Human immunodeficiency virus 1, M:B_89.6, TZM-bl
[28] = Half life of the compound in methyl alcohol assessed as compound racemization at 24 degC; assay type: physicochemical
[29] = Selectivity index, ratio of CC50 for human TZM-bl cells to IC50 for antiviral activity against HIV1 HXB2 pseudovirus infected in human TZM-bl cells; assay type: toxicity, cell-based; conditions: read-out: Ratio CC50/IC50
[30] = Human immunodeficiency virus 1, M:B_HXB2R, TZM-bl, read-out: IC50
[31] = Human immunodeficiency virus 1, M:B_89.6, TZM-bl, read-out: IC50
[32] = Human immunodeficiency virus 1, isolate YU2, TZM-bl, read-out: IC50
[33] = Human immunodeficiency virus 1, LAI, 48 h, read-out: IC50

Sequence of Human immunodeficiency virus type 1 integrase (Q7ZJM1 whole entry): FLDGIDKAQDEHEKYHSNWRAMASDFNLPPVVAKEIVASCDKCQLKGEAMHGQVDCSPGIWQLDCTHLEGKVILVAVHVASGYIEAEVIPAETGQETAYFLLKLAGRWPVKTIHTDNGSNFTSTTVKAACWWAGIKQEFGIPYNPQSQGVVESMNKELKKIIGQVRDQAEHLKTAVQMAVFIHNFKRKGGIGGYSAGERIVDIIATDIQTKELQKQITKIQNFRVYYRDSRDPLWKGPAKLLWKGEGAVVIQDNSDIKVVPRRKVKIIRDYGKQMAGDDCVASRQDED

Structure (SMILES): CC(C)Oc1ccc2cccnc2c1-c1cccc2cccnc12
IC50 (Reverse transcriptase): > 100 µM
Activity [1]: inactive
Activity [2]: inactive
IC50 [3]: > 100 µM
IC50 [4]: Not Active
Activity [5]: inactive
IC50 [6]: > 100 µM
IC50 [7]: > 100 µM
IC50 [8]: > 100 µM
IC50 [9]: Not Active
IC50 [10]: Not Active
CC50 ([11]; 48 h): Non-Toxic
Activity [12]: inactive
CC50 (TZM): Non-Toxic
IC50 [13]: Not Active

Structure (SMILES): CC(C)Oc1ccc2cccnc2c1-c1cccc2ccccc12
IC50 [14]: > 100 µM
IC50 (Reverse transcriptase): > 100 µM
selectivity ratio [15]: 11.4
Kd [16]: 38 µM
IC50 [17]: 34.2 µM
selectivity ratio [18]: 14.6
Ratio IC50 [19]: 5
IC50 [3]: 44.3 µM
IC50 [4, 30]: 6.7 µM
Activity [20]: Not Active
IC50 [6]: > 100 µM
IC50 [7]: > 100 µM
IC50 [8]: 46.8 µM
Activity [21]: Not Active
IC50 [9, 31]: 4.7 µM
IC50 [10, 32]: 8.9 µM
Activity [22]: Not Active
CC50 at 48 h [11]: 86.5 µM
Activity [23]: Not Active
CC50 at 48 h [24]: 68.5 µM
IC50 [13, 33]: 6.7 µM

Structure (SMILES): O=C1Nc2ccc(Cl)cc2[C@@](C#CC2CC2)(C(F)(F)F)O1 [EFAVIRENZ]
CC50 (TZM): Non-Toxic

Structure (SMILES): CC(C)Oc1ccc2ccccc2c1-c1cccc2cccnc12
selectivity ratio [15]: 3.6
IC50 [4, 30]: > 100 µM
IC50 [9, 31]: > 100 µM
IC50 [10, 32]: > 100 µM
CC50 at 48 h [11]: 145 µM
CC50 at 48 h [24]: > 100 µM
IC50 [13, 33]: 39.5 µM

Structure (SMILES): CCN(CC)C(=O)Oc1ccc2cccnc2c1-c1cccc2ccccc12
selectivity ratio [15]: 2.2
selectivity ratio [18]: 1.7
IC50 [4, 30]: 61.4 µM
IC50 [9, 31]: 56.6 µM
IC50 [10, 32]: 77.6 µM
CC50 at 48 h [11]: 51.9 µM
CC50 at 48 h [24]: 95 µM
IC50 [13, 33]: 24.1 µM

Structure (SMILES): COc1cnc(-n2cnc(C)n2)c2[nH]cc(C(=O)C(=O)N3CCN(C(=O)c4ccccc4)CC3)c12
inhibition at 0.02 µM [25]: 100%
inhibition at 0.02 µM [26]: 100%
inhibition at 0.02 µM [27]: 100%

Structure (SMILES): Cc1cc(/C=C/C#N)cc(C)c1Nc1ccnc(Nc2ccc(C#N)cc2)n1 [RILPIVIRINE]
IC50 (Reverse transcriptase): > 10 µM
IC50 [3]: > 10 µM
IC50 [8]: > 10 µM

half-life [28]: 89 h
Structure (SMILES): Oc1ccc2ccccc2c1-c1cccc2cccnc12

Structure (SMILES): NC(=O)c1c(N)sc2c1CCCCC2
IC50 [8]: 28.1 µM

half-life [28]: 120 h
Structure (SMILES): Oc1ccc2cccnc2c1-c1cccc2ccccc12

Structure (SMILES): CCN(CC)C(=O)Oc1ccc2cccnc2c1-c1cccc2cccnc12
Activity [1]: inactive
Activity [2]: inactive
IC50 [4]: Not Active
Activity [5]: inactive
IC50 [9]: Not Active
IC50 [10]: Not Active
CC50 at 48 h [11]: 383 µM
Activity [12]: inactive
CC50 (TZM): Non-Toxic
IC50 [13]: Not Active

Structure (SMILES): CCN(CC)C(=O)Oc1ccc2ccccc2c1-c1cccc2cccnc12
selectivity ratio [29]: 5.5
selectivity ratio [15]: 1.4
IC50 [4, 30]: 12.6 µM
IC50 [9, 31]: 16.8 µM
IC50 [10, 32]: 14 µM
CC50 at 48 h [11]: 71.4 µM
CC50 at 48 h [24]: 69.3 µM
IC50 [13, 33]: 50.1 µM
